Data: the NIST ThermoML archive (doi:10.1016/j.jct.2016.02.009)
± gives the expanded uncertainty stated by the source.

Assay: molar heat capacity at constant pressure
Details: 101.33 kPa, Small (less than 1 g) adiabatic calorimetry

CCCCCCCCCCn1cc[n+](C)c1.O=S(=O)([N-]S(=O)(=O)C(F)(F)F)C(F)(F)F
molar heat capacity at constant pressure [J/K/mol]
Details	Crystal 2	Metastable crystal
4.82 K	3.08 ± 0.09	–
4.98 K	–	3.38 ± 0.1
5 K	3.41 ± 0.11	3.41 ± 0.11
5.15 K	3.69 ± 0.1	–
5.32 K	–	4.05 ± 0.11
5.49 K	4.38 ± 0.12	–
5.67 K	–	4.81 ± 0.13
5.85 K	5.15 ± 0.14	–
6.03 K	–	5.65 ± 0.15
6.28 K	6.16 ± 0.16	–
6.46 K	–	6.76 ± 0.17
6.8 K	7.44 ± 0.19	–
6.97 K	–	8.15 ± 0.21
7.32 K	8.83 ± 0.22	–
7.49 K	–	9.71 ± 0.24
7.85 K	10.34 ± 0.25	–
8.02 K	–	11.34 ± 0.28
8.39 K	11.95 ± 0.29	–
8.55 K	–	13.1 ± 0.32
8.92 K	13.66 ± 0.33	–
9.09 K	–	14.97 ± 0.36
9.47 K	15.45 ± 0.37	–
9.62 K	–	16.9 ± 0.4
10 K	17.29 ± 0.33	18.31 ± 0.36
10.01 K	17.32 ± 0.28	–
10.16 K	–	18.93 ± 0.31
10.63 K	19.54 ± 0.31	–
10.78 K	–	21.32 ± 0.34
11.31 K	22.05 ± 0.35	–
11.46 K	–	24.01 ± 0.37
12 K	24.68 ± 0.38	–
12.15 K	–	26.84 ± 0.41
12.7 K	27.41 ± 0.42	–
12.85 K	–	29.77 ± 0.45
13.4 K	30.22 ± 0.45	–
13.56 K	–	32.75 ± 0.49
14.1 K	33.14 ± 0.49	–
14.27 K	–	35.9 ± 0.53
14.81 K	36.15 ± 0.53	–
14.99 K	–	39.03 ± 0.57
15 K	36.94 ± 0.52	39.12 ± 0.55
15.63 K	39.64 ± 0.57	–
15.81 K	–	42.67 ± 0.61
16.56 K	43.69 ± 0.62	–
16.75 K	–	46.88 ± 0.66
17.51 K	47.81 ± 0.66	–
17.7 K	–	51.06 ± 0.71
18.46 K	51.81 ± 0.71	–
18.65 K	–	55.14 ± 0.75
19.4 K	55.79 ± 0.75	–
19.6 K	–	59.21 ± 0.79
20 K	58.37 ± 0.57	61 ± 0.59
20.36 K	59.87 ± 0.58	–
20.85 K	–	64.6 ± 0.61
21.61 K	65.16 ± 0.6	–
22.41 K	–	71.3 ± 0.64
23.17 K	71.8 ± 0.63	–
23.98 K	–	78 ± 0.67
24.75 K	78.35 ± 0.66	–
25 K	79.32 ± 0.66	82.14 ± 0.69
25.56 K	–	84.49 ± 0.69
26.31 K	84.64 ± 0.68	–
27.07 K	–	90.53 ± 0.71
27.89 K	90.84 ± 0.69	–
28.66 K	–	96.83 ± 0.72
29.55 K	97.23 ± 0.7	–
30 K	98.9 ± 0.59	102 ± 0.6
30.24 K	–	102.9 ± 0.6
31.4 K	104 ± 0.6	–
31.98 K	–	109.5 ± 0.6
33.31 K	110.8 ± 0.6	–
33.9 K	–	116.3 ± 0.7
35 K	116.6 ± 0.7	120.1 ± 0.7
35.22 K	117.3 ± 0.7	–
35.82 K	–	123 ± 0.7
37.13 K	123.7 ± 0.7	–
37.74 K	–	129.4 ± 0.7
39.05 K	129.9 ± 0.7	–
39.66 K	–	135.6 ± 0.8
40 K	132.9 ± 0.7	136.7 ± 0.8
41.06 K	136.2 ± 0.8	–
41.68 K	–	142 ± 0.8
43.16 K	142.8 ± 0.8	–
43.79 K	–	148.7 ± 0.8
45 K	–	152.5 ± 0.9
45.27 K	149.2 ± 0.8	–
45.9 K	–	155.3 ± 0.9
47.38 K	155.7 ± 0.9	–
48.02 K	–	161.8 ± 0.9
49.5 K	161.9 ± 0.9	–
50 K	163.2 ± 1	167.6 ± 1
50.15 K	–	168 ± 0.9
51.63 K	168 ± 0.9	–
52.27 K	–	174.1 ± 1
53.75 K	173.9 ± 1	–
54.4 K	–	180 ± 1
55.87 K	179.6 ± 1	–
56.52 K	–	185.7 ± 1
57.99 K	185.1 ± 1	–
58.65 K	–	191.3 ± 1.1
60 K	190.4 ± 1.1	194.8 ± 1.1
60.11 K	190.6 ± 1.1	–
60.78 K	–	196.8 ± 1.1
62.24 K	196.1 ± 1.1	–
62.91 K	–	202.2 ± 1.1
64.38 K	201.3 ± 1.1	–
65.05 K	–	207.5 ± 1.2
66.52 K	206.5 ± 1.2	–
67.19 K	–	212.7 ± 1.2
68.65 K	211.6 ± 1.2	–
69.32 K	–	217.8 ± 1.2
70 K	214.9 ± 1.2	219.4 ± 1.2
70.79 K	216.6 ± 1.2	–
71.56 K	–	223.1 ± 1.2
73.03 K	221.9 ± 1.2	–
73.9 K	–	228.4 ± 1.3
75.37 K	227.2 ± 1.3	–
76.24 K	–	233.8 ± 1.3
77.73 K	232.5 ± 1.3	–
78.59 K	–	239 ± 1.3
80 K	237.4 ± 1.3	242.1 ± 1.4
80.09 K	237.6 ± 1.3	–
80.53 K	238.8 ± 1.3	–
80.94 K	–	244.2 ± 1.4
81.02 K	–	244.3 ± 1.4
82.24 K	242.3 ± 1.3	–
82.44 K	242.6 ± 1.3	–
82.84 K	–	248.2 ± 1.4
83.3 K	–	249.2 ± 1.4
83.96 K	245.9 ± 1.4	–
84.55 K	–	251.8 ± 1.4
85.68 K	249.4 ± 1.4	–
86.26 K	–	255.5 ± 1.4
87.42 K	253.1 ± 1.4	–
87.99 K	–	259.2 ± 1.4
89.16 K	256.6 ± 1.4	–
89.72 K	–	262.8 ± 1.5
90 K	258.5 ± 1.3	263.4 ± 1.4
90.91 K	260.3 ± 1.4	–
91.45 K	–	266.4 ± 1.4
92.66 K	263.9 ± 1.4	–
93.2 K	–	270 ± 1.4
94.42 K	267.5 ± 1.4	–
94.95 K	–	273.7 ± 1.4
96.19 K	271.1 ± 1.4	–
96.7 K	–	277.2 ± 1.4
97.97 K	274.7 ± 1.4	–
98.47 K	–	280.8 ± 1.5
99.75 K	278.1 ± 1.5	–
100 K	278.7 ± 1.4	283.9 ± 1.5
100.23 K	–	284.3 ± 1.5
101.59 K	281.8 ± 1.5	–
102.07 K	–	288.2 ± 1.5
103.5 K	285.5 ± 1.5	–
103.96 K	–	292 ± 1.5
105.42 K	289.1 ± 1.5	–
105.87 K	–	295.9 ± 1.5
107.35 K	292.7 ± 1.5	–
107.77 K	–	299.7 ± 1.6
109.27 K	296.4 ± 1.5	–
109.69 K	–	303.6 ± 1.6
110 K	297.7 ± 1.6	304.1 ± 1.6
111.21 K	299.9 ± 1.6	–
111.6 K	–	307.4 ± 1.6
113.14 K	303.5 ± 1.6	–
113.52 K	–	311.1 ± 1.6
115.09 K	307 ± 1.6	–
115.45 K	–	314.9 ± 1.6
117.03 K	310.5 ± 1.6	–
117.37 K	–	318.6 ± 1.6
118.98 K	314 ± 1.6	–
119.3 K	–	322.3 ± 1.7
120 K	315.8 ± 1.7	323.7 ± 1.7
120.92 K	317.4 ± 1.6	–
121.23 K	–	326.1 ± 1.7
122.88 K	320.8 ± 1.7	–
123.16 K	–	329.9 ± 1.7
124.83 K	324.3 ± 1.7	–
125.09 K	–	333.6 ± 1.7
126.79 K	327.7 ± 1.7	–
127.03 K	–	337.4 ± 1.7
128.75 K	331.1 ± 1.7	–
128.97 K	–	341.2 ± 1.8
130 K	333.3 ± 1.7	343.2 ± 1.8
130.71 K	334.5 ± 1.7	–
130.9 K	–	345.1 ± 1.8
132.67 K	337.9 ± 1.7	–
132.84 K	–	348.9 ± 1.8
134.64 K	341.3 ± 1.8	–
134.78 K	–	352.7 ± 1.8
136.6 K	344.8 ± 1.8	–
136.72 K	–	356.6 ± 1.8
138.57 K	348 ± 1.8	–
138.66 K	–	360.6 ± 1.9
140 K	350.5 ± 1.8	363.3 ± 1.9
140.54 K	351.4 ± 1.8	–
140.6 K	–	364.4 ± 1.9
142.51 K	354.8 ± 1.8	–
